From paper PMC8187479, “Sugar phosphate activation of the stress sensor eIF2B” (Nature Communications, 2021)
Substitutions are numbered along the chain they refer to. Entries after “also recorded” stand apart in the source; their conditions may differ.

Legend:
eIF2Bα^V183F [1] = molecular target: T1, eIF2Bα^V183F (Homo sapiens, UniProt Q14232, V183F); experiment: Size-exclusion chromatography of recombinant eIF2Bα V183F, alone or with eIF2B(βδγε); assay type: biochemical; settings: SEC, eIF2Bα V183F alone
T1 construct: made in house; host or cells: E. coli BL21(DE3)
T1 sequence (Q14232 1-305 V183F): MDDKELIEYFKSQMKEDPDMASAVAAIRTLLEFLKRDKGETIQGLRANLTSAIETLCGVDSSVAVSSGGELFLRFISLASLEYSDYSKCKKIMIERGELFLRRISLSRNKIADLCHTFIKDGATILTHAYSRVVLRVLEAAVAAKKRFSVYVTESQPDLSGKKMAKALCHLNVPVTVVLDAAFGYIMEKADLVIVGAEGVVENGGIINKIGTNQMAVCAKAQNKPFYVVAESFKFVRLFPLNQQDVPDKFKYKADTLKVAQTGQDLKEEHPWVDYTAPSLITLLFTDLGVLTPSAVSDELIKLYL
Procedure: (§1) Purified proteins were thawed and centrifuged at 20,000 × g, 10 min, 4 °C to remove any potential precipitate. Concentrations of eIF2B(βδγε) and eIF2Bα were normalized to 2 μM and 2.4 μM, respectively. 0.2 mL of each mixture was injected onto a Superose 6 Increase 10/300 column connected to an AKTA Pure 25 FPLC system (GE Healthcare). The system was run at 0.5 mL/min for 1 h using 25 mM HEPES, 200 mM KCl, 2 mM MgCl2, 1 mM DTT, pH 7.5 as the mobile phase. For conditions with ISRIB, the protein samples and mobile phase were supplemented with 500 nM ISRIB. For conditions with F6P, the protein samples and mobile phase were supplemented with 200 μM F6P. UV280 measurements were obtained directly by the instrument.

eIF2Bα^N208Y = molecular target: T2, eIF2Bα^N208Y (Homo sapiens, UniProt Q14232, N208Y); experiment: Isothermal titration calorimetry, eIF2Bα N208Y; assay type: binding; settings: ITC
T2 construct: made in house; host or cells: E. coli BL21(DE3)
T2 sequence (Q14232 1-305 N208Y): T1 sequence (Q14232 1-305 V183F) with F183V, N208Y
Procedure: (§2) Interactions between recombinant protein and sugar phosphates were conducted with a MicroCal PEAQ-ITC (Malvern Panalytical Inc.). Experiments were performed in 25 mM HEPES, 150 mM NaCl, pH 7.5 at 20 °C. The sugar phosphate concentration in the syringe was 1 mM or 1.5 mM, and ~3.5 μL aliquots were injected into cells containing 300 μL eIF2Bα or eIF2B(βδγε) at a concentration of 20–30 μM. The final titration curves were fitted using MicroCal ITC data analysis software, assuming a single binding site per monomer.

eIF2B(βδγε) = molecular target: T3, eIF2B(βδγε) (Homo sapiens, UniProt P49770+Q9UI10); experiment: Isothermal titration calorimetry, eIF2B(βδγε) subcomplex; assay type: binding; settings: ITC
T3 construct: made in house
T3 sequence (P49770 whole entry): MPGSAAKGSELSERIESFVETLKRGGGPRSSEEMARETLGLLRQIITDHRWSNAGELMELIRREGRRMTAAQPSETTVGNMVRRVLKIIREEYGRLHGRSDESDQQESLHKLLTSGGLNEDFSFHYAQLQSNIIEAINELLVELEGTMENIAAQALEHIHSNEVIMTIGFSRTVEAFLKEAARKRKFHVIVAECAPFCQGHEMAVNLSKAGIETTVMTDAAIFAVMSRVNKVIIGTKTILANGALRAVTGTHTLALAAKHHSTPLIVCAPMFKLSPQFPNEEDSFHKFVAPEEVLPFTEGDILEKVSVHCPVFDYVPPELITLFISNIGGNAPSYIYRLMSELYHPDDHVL
T3 sequence (Q9UI10 whole entry): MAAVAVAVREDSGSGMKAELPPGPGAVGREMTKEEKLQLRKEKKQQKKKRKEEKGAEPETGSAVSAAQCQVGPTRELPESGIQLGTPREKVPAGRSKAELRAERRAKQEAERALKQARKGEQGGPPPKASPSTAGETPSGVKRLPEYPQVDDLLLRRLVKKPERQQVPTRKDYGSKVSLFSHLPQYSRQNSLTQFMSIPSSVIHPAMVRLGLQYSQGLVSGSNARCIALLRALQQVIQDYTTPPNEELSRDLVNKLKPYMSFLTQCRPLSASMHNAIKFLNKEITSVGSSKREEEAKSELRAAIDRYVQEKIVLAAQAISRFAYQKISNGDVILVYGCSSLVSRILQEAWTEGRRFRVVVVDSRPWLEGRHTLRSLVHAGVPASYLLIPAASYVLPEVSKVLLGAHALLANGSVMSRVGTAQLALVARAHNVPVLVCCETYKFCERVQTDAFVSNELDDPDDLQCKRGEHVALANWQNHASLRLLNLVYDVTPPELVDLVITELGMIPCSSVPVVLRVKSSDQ
T3 sequence (Q9NR50 whole entry partner): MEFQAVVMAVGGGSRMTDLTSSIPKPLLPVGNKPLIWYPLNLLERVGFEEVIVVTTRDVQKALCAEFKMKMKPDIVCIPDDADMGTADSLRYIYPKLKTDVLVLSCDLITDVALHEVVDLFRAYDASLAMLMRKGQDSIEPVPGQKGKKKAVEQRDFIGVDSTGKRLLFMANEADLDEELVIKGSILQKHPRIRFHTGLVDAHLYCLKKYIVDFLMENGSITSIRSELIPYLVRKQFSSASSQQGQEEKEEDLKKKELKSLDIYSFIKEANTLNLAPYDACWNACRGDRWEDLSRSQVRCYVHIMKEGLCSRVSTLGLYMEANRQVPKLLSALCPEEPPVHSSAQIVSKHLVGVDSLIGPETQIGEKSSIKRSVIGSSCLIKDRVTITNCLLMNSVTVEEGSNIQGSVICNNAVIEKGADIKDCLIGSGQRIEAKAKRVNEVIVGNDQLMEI
T3 sequence (Q13144 whole entry partner): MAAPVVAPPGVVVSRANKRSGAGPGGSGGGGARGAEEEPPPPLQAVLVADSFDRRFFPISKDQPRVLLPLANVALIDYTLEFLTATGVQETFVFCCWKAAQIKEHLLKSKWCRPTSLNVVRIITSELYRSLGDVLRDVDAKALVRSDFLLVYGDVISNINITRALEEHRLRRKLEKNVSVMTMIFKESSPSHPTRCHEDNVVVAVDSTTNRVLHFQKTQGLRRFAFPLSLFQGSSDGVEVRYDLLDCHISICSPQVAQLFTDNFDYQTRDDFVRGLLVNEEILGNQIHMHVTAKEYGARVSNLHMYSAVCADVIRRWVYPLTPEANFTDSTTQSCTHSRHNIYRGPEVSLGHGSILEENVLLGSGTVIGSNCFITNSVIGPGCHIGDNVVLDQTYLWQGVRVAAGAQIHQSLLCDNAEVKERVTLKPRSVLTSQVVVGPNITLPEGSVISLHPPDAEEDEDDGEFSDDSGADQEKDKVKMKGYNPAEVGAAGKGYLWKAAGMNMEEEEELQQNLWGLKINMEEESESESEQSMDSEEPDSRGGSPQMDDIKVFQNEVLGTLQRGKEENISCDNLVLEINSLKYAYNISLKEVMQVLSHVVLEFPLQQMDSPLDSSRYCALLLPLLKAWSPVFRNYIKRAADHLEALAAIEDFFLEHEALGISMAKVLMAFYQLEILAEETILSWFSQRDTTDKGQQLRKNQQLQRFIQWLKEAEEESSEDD
Procedure: as §2

eIF2B = molecular target: T4, eIF2B (Homo sapiens, UniProt P49770+Q14232+Q9UI10); experiment: eIF2B GEF activity assay, targeted, recombinant wild-type eIF2B; assay type: biochemical; settings: dose-response with eIF2B; 95% CI 2.2-5.3 μM; read-out: EC50 of GEF activation (GDP release t1/2)
T4 construct: made in house; host or cells: eIF2Bα: E. coli BL21(DE3)
T4 sequence (Q14232 whole entry): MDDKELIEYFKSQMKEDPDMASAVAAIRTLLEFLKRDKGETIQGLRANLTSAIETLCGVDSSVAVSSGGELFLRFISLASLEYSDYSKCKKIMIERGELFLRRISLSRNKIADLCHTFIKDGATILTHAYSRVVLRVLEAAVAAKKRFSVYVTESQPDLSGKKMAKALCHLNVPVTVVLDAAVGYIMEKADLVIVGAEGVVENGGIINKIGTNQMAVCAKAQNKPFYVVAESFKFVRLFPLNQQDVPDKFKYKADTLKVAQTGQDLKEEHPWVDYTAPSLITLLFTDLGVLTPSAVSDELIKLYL
T4 sequence (P49770 whole entry): as the sequence (P49770 whole entry) above
T4 sequence (Q9UI10 whole entry): as the sequence (Q9UI10 whole entry) above
T4 sequence (Q9NR50 whole entry partner): as the sequence (Q9NR50 whole entry partner) above
T4 sequence (Q13144 whole entry partner): as the sequence (Q13144 whole entry partner) above
Procedure: Bodipy-FL-GDP-loaded eIF2 was used as a substrate for recombinant eIF2B. The assay was performed in 384-well plates. Reactions were read on a SpectraMax i3x plate reader (Molecular Devices) using the instrument’s Softmax Pro software with the following parameters: plate temperature = 25 °C; excitation wavelength = 485 nm (15 nm width); emission wavelength = 535 nm (25 nm width); read duration = 30 min at 45 s intervals. Data were analyzed in Prism. GDP release half-lives were calculated by fitting single-exponential decay curves.
For unbiased screening, MIDAS metabolite libraries at 10 mM stock concentration were dispensed into wells of the assay plate using an Echo Acoustic Liquid Handler (Labcyte). In a final assay volume of 10 μL/well, the following conditions were kept constant: 25 nM Bodipy-FL-GDP-loaded eIF2, 4 nM phospho-eIF2, 0.1 mM GDP, 1 mg/mL BSA, 1 nM eIF2B, 10 μM metabolite. A single well was run for each metabolite. For targeted experiments with recombinant wild-type and mutant eIF2Bα, the following conditions were used: 50 nM Bodipy-FL-GDP-loaded eIF2, 0.1 mM GDP, 1 mg/ml BSA, 20 nM eIF2B. For targeted experiments with HEK293T lysates, the following conditions were used: 50 nM Bodipy-FL-GDP-loaded eIF2, 0.1 mM GDP, 1 mg/ml BSA, 0.1 or 0.3 mg/ml lysates.

eIF2Bα^V183F [2] = molecular target: eIF2Bα^V183F (Homo sapiens, UniProt Q14232, V183F); experiment: Size-exclusion chromatography of recombinant eIF2Bα V183F, alone or with eIF2B(βδγε); assay type: biochemical; design: made in house; host or cells: E. coli BL21(DE3); settings: SEC, recombinant eIF2B(βδγε) + eIF2Bα V183F; 200 μM F6P
Procedure: as §1
Target sequence in this assay (P49770 whole entry partner, one chain of several): as the sequence (P49770 whole entry) above
Target sequence in this assay (Q9UI10 whole entry partner, one chain of several): as the sequence (Q9UI10 whole entry) above
Target sequence in this assay (Q9NR50 whole entry partner, one chain of several): as the sequence (Q9NR50 whole entry partner) above
Target sequence in this assay (Q13144 whole entry partner, one chain of several): as the sequence (Q13144 whole entry partner) above

O=C(CO)[C@@H](O)[C@H](O)[C@H](O)COP(=O)(O)O [F6P, fructose-6-phosphate] was tested, and the “monomer-to-dimer shift of eIF2Bα V183F” value (eIF2Bα^V183F [1]) was “induced a partial shift from the monomer to the dimer peak”, the “interaction with eIF2Bα N208Y” value (eIF2Bα^N208Y) was “does not interact; also recorded: abrogates binding” and the “interaction with eIF2B(βδγε) subcomplex” value (eIF2B(βδγε)) was “did not interact appreciably”. For the same molecule, the EC50 (eIF2B) was 3.4 µM and the “eIF2Bα V183F monomer peak” value (eIF2Bα^V183F [2]) was “significant reduction of the eIF2Bα^V183F monomer peak”.
